Source: patent US20240287063A1, “METHIONINE ADENOSYLTRANSFERASE 2A INHIBITOR” (NANJING CHIA TAI TIANQING PHARMACEUTICAL CO., LTD., priority 2021, published 2024)

Assays:
[1] = target: T1, MAT2A enzyme (Homo sapiens, UniProt P31153); experiment: Enzymatic testing method for MAT2A (Biomol Green, OD620); format: biochemical; conditions: score by IC50 for inhibiting MAT2A; read-out: MAT2A inhibition score
T1 construct: purchased BPS 71401
Procedure: • a) A 5×MAT2A test buffer (250 mM Tris-HCl, pH 8.0; 250 mM KCl; 75 mM MgCl2; 0.025% BSA; 0.05% Brij35; 1.5 mM EDTA) was first prepared and partially diluted to 1× for later use; • b) Preparation and addition of MAT2A enzyme (BPS, 71401): the MAT2A enzyme was prepared into 3.674 ng/L by using the 1×MAT2A test buffer (1.67×, final concentration 2.20 ng/L), a BioTek (MultiFlo FX) automatic liquid separator was used, 15 μL of 1.67×MAT2A enzyme solution was added to compound test wells and negative control wells respectively, and 15 μL of 1×MAT2A test buffer was added to blank control wells; • c) Preparation and addition of a compound: a compound to be tested was diluted with DMSO from 10 mM stock solution to 100 μM, a positive drug AGI-24512 was diluted under the same conditions, and the diluted compound and positive drug were automatically sprayed into each well by using a Tecan compound titrator (D300e) according to preset concentration gradients, where the spray volume was little and negligible. The concentration gradient was initially 1 μM, the dilution was implemented by ½ log, and a total of 8 gradients were set. Centrifugation at 2500 rpm for 30 s and incubation at 25° C. for 30 min were performed; • d) Preparation of ATP: 10 mM ATP (Sigma, A7699) was diluted with 1×MAT2A test buffer to 700 μM for later use; • e) Preparation and addition of a substrate and ATP mixture: 5×MAT2A test buffer, 3 μL/well; 750 μM L-methionine (Adamas, 01100469), 2.5 μL/well; 700 μM ATP, 2.5 μL/well; and double distilled water, 2 μL/well. A total amount of required mixture was prepared according to the number of test wells, and 10 μL of the mixture was added to each well by using the BioTek (MultiFlo FX) automatic liquid separator, followed by centrifugation at 2500 rpm for 30 s and reaction at 25° C. for 150 min; • f) Addition of Biomol Green detection reagent: 50 μL of Biomol Green (Enzo, BML-AK111) was added to each well by using the BioTek (MultiFlo FX) automatic liquid separator, followed by centrifugation at 2500 rpm for 30 s and incubation at 25° C. for 20 minutes; • g) After the reaction, OD620 values were read by using a Perkin Elmer (Envision 2105) multifunctional plate reader.
A formula for calculating an inhibition rate was as follows: […]
Wherein, • % Inhibition: inhibition rate % • ODsample: OD620 value in a sample well; • ODmin: representing a mean OD620 value of blank control wells without the enzyme or compound to be tested; • ODmax: representing a mean OD620 value of negative control wells with the enzyme and without the compound.
Then a dose-effect curve log(inhibitor) vs. response-Variable slope was fitted by usingGraphPad Prism 5 software to obtain an IC50 value of compound for MAT2A enzyme inhibition.

[2] = system: HCT116 MTAP−/− subcutaneous xenograft tumors; experiment: In vivo effect experiment of HCT116 MTAP−/− subcutaneous xenograft tumors in nude mice; conditions: 50 mg/kg daily intragastric
Procedure: Female Nu/Nu nude mice (6-8 weeks old, Beijing Vital River Laboratory Animal Technology Co., Ltd.) were raised in an SPF animal room at a temperature of 20° C.-25° C., relative humidity of 40%-70%, and light and dark lighting for 12 hours each; and animals can freely drink and eat. The animals were adaptively fed before experiment.
HCT116 MTAP^−/− cells (Horizon) were cultured in vitro for proliferation, cells in logarithmic growth phase were collected and resuspended in a serum-free RPMI-1640 medium, and the cell concentration was adjusted to 6.0×10^7 cells/mL; and 100 μL of the cell suspension was injected subcutaneously into the right anterior armpit of each nude mouse by using a 1 mL syringe, the status of the animals was observed regularly, and the growth of transplanted tumors was monitored regularly.
When the tumor volume reached 100-300 mm^3, animals with too large or too small tumor volume or uncertain tumor formation were eliminated, and tumor bearing mice with good health and similar tumor volume were selected and randomly grouped, 6 mice in each group; the administration group received daily intragastric administration (AG-270: 50 mg/kg, with a structure shown below; compound to be tested: 1-7.5 mg/kg); and the control group was intragastrically administrated with the same volume of blank solvent. In the administration period, the tumor diameter was measured twice a week, the tumor volume was calculated, the animals were weighed, and their weight was recorded.
A formula for calculating tumor volume (TV) is: Tv=½×a×b^2, wherein a represents long diameter of the tumor, and b represents short diameter of the tumor.
Experimental data is calculated and statistically processed by using Microsoft Office Excel 2007 software. Unless otherwise specified, the data were expressed as mean±standard error (Mean SEM), and t-test is used for comparison between two groups.
Growth curves of tumor volume in each group are shown in FIG. 1, results of SAM test in tumors of each group are shown in FIG. 2, and the mean tumor volume and SEM in each group are shown in Table 2 below: […]

T1 sequence (P31153 whole entry): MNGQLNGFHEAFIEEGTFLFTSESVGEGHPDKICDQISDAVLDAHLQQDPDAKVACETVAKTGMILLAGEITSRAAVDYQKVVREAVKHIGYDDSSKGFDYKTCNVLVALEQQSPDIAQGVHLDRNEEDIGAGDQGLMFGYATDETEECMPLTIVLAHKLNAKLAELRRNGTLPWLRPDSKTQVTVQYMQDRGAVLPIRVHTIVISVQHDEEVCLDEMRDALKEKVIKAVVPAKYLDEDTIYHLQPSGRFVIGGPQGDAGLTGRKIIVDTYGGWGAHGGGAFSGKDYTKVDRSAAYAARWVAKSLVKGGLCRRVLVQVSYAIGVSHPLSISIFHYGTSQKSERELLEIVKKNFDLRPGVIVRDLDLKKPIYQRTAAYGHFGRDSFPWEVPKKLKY

Row | SMILES | IC50 [1] [nM] | also measured
1 | Cn1nccc1-c1c2cc(-c3cn4ccc(C5CC5)cc4c(-c4ccc5nn(C)c(-c6ccnn6C)c5c4)c3=O)ccc2nn1C [Example 8, 8-cyclopropyl-1,3-bis[2-methyl-3-(2-methylpyrazol-3-yl)indazol-5-yl]quinolizin-2-one] | > 1000 | –
2 | Cn1cc2cc(-c3cn4ccc(C5CC5)nc4c(-c4ccc5nn(C)cc5c4)c3=O)ccc2n1 [Example 29, 2-cyclopropyl-7,9-bis(2-methyl-2H-indazol-5-yl)-8H-pyrido[1,2-a]pyrimidin-8-one] | > 1000 | –
3 | O=c1c(-c2ccc(OC(F)F)cc2)cn2c(C3CC3)ccnc2c1-c1ccc(OC(F)F)cc1 [Example 40, 4-cyclopropyl-7,9-bis[4-(difluoromethoxy)phenyl]-8H-pyrido[1,2-a]pyrimidin-8-one] | > 1000 | –
4 | COc1ccc(-c2c(Nc3ccccn3)[nH]c3c(C4=CCCCC4)c(-c4ccccc4)nn3c2=O)cc1 [AG-270, reference compound] | – | Tumor volume, mean volume ([2]; day 1 of administration): 154 mm^3; Tumor volume, mean volume ([2]; day 4 of administration): 189 mm^3; Tumor volume, mean volume ([2]; day 6 of administration): 219 mm^3; Tumor volume, mean volume ([2]; day 8 of administration): 244 mm^3; Tumor volume, mean volume ([2]; day 11 of administration): 303 mm^3; Tumor volume, mean volume ([2]; day 13 of administration): 369 mm^3; Tumor volume, mean volume ([2]; day 15 of administration): 419 mm^3
5 | Cn1nc2ccc(-c3cn4ccc(C5CC5)cc4c(-c4ccc5nn(C)c(N)c5c4)c3=O)cc2c1N [Example 5, 1,3-bis(3-amino-2-methyl-2H-indazol-5-yl)-8-cyclopropylquinolizin-2-one] | > 1000 | –
6 | O=c1c(-c2ccc(OC(F)F)cc2)cn2ccc(-c3ccc(OC(F)F)cc3)cc2c1-c1ccc(OC(F)F)cc1 [Example 1, 1,3,8-tris(4-(difluoromethoxy)phenyl)-2H-quinolizin-2-one] | 50 to 200 | –
7 | O=c1c(-c2ccc3c(c2)OC(F)(F)O3)cn2ccc(C3CC3)nc2c1-c1ccc2c(c1)OC(F)(F)O2 [Example 30, 2-cyclopropyl-7,9-bis(2,2-difluoro-1,3-benzodioxol-5-yl)-8H-pyrido[1,2-a]pyrimidin-8-one] | > 1000 | –
8 | COc1ccc(-c2cn3ccc(C4CC4)nc3c(-c3ccc(OC)c(OC)c3)c2=O)cc1OC [Example 31, 2-cyclopropyl-7,9-bis(3,4-dimethoxyphenyl)-8H-pyrido[1,2-a]pyrimidin-8-one] | > 1000 | –
9 | COc1cc(-c2cn3ccc(C4CC4)nc3c(-c3ccc(OC(F)F)c(OC)c3)c2=O)ccc1OC(F)F [Example 37, 2-cyclopropyl-7,9-bis(4-(difluoromethoxy)-3-methoxyphenyl)-8H-pyrido[1,2-a]pyrimidin-8-one] | 50 to 200 | –
10 | COc1ccc(-c2cn3ccc(C4CC4)nc3c(-c3ccc4c(c3)OC(F)(F)O4)c2=O)cc1OC [Example 33, 2-cyclopropyl-9-(2,2-difluoro-1,3-benzodioxol-5-yl)-7-(3,4-dimethoxyphenyl)-8H-pyrido[1,2-a]pyrimidin-8-one] | > 1000 | –
11 | COc1cc(-c2cn3ccc(C4CC4)nc3c(-c3ccc4c(c3)OC(F)(F)O4)c2=O)ccc1OC(F)F [Example 34, 2-cyclopropyl-9-(2,2-difluoro-1,3-benzodioxol-5-yl)-7-[4-(difluoromethoxy)-3-methoxyphenyl]-8H-pyrido[1,2-a]pyrimidin-8-one] | > 1000 | –
12 | O=c1ccn2cc(-c3ccc(OC(F)F)cc3)c(=O)c(-c3ccc(OC(F)F)cc3)c2[nH]1 [Example 21, 7,9-bis[4-(difluoromethoxy)phenyl]-1H-pyrido[1,2-a]pyrimidin-2,8-dione] | > 1000 | –

Second part, led by results:

Row | IC50 [1] [nM] | SMILES | also measured
13 | < 50 | O=C1NC2(CC2)Cn2nc3ccc(-c4cn5ccc(C6CC6)nc5c(-c5ccc(OC(F)F)cc5)c4=O)cc3c21 [Example 35, 9′-(2-cyclopropyl-9-(4-(difluoromethoxy)phenyl)-8-oxo-8H-pyrido[1,2-a]pyrimidin-7-yl)-4′H-spiro[cyclopropane-1,3′-pyrazino[1,2-b]indazol]-1′(2′H)-one] | –
14 | < 50 | O=c1c(-c2ccc(OC(F)F)cc2)cn2ccc(Cl)cc2c1-c1ccc(OC(F)F)cc1 [Example 2, 8-chloro-1,3-bis(4-(difluoromethoxy)phenyl)-2H-quinolizin-2-one] | –
15 | < 50 | O=C1NC2(CC2)Cn2nc3ccc(-c4cn5ccc(NCC(F)(F)F)nc5c(-c5ccc(OC(F)F)cc5)c4=O)cc3c21 [Example 14, 9′-{9-[4-(difluoromethoxy)phenyl]-8-oxo-2-[(2,2,2-trifluoroethyl)amino]pyrido[1,2-a]pyrimidin-7-yl}-2′,4′-dihydrospiro[cyclopropane-1,3′-pyrazino[1,2-b]indazol]-1′-one] | –
16 | < 50 | Nc1nc2ccc(-c3cn4ccc(NCC(F)(F)F)nc4c(-c4ccc(OC(F)F)cc4)c3=O)cc2s1 [Example 18] | –
17 | < 50 | N#CCn1cc2cc(-c3cn4ccc(NCC(F)(F)F)nc4c(-c4ccc(OC(F)F)cc4)c3=O)ccc2n1 [Example 19, 2-(5-{9-[4-(difluoromethoxy)phenyl]-8-oxo-2-[(2,2,2-trifluoroethyl)amino]pyrido[1,2-a]pyrimidin-7-yl}indazol-2-yl)acetonitrile] | –
